Measured values as given in ChEMBL document CHEMBL5465560, “Selectivity Literature for EUbOPEN Chemogenomic Library” (2024).

Columns and labels:
[1] = target: Platelet-derived growth factor receptor alpha (Homo sapiens, UniProt P16234); experiment: Selectivity interaction (KinomeScan (DiscoverX)) EUB0001049a PDGFRA; conditions: at 1 µM
[2] = target: Mitogen-activated protein kinase 14 (Homo sapiens, UniProt Q16539); experiment: Selectivity interaction (Enzymatic assay) EUB0001199aCl MAPK14
[3] = target: Tyrosine-protein kinase Fgr (Homo sapiens) (UniProt P09769); experiment: Selectivity interaction (KinomeScan (DiscoverX)) EUB0000666a FGR; conditions: at 10 µM
[4] = target: T1, Peregrin (Homo sapiens) (UniProt P55201); experiment: Selectivity interaction (PWWP, WD40, and Tudor domain panel (DSLS measurements, literature)) EUB0000270b BRPF1
T1 sequence (whole entry): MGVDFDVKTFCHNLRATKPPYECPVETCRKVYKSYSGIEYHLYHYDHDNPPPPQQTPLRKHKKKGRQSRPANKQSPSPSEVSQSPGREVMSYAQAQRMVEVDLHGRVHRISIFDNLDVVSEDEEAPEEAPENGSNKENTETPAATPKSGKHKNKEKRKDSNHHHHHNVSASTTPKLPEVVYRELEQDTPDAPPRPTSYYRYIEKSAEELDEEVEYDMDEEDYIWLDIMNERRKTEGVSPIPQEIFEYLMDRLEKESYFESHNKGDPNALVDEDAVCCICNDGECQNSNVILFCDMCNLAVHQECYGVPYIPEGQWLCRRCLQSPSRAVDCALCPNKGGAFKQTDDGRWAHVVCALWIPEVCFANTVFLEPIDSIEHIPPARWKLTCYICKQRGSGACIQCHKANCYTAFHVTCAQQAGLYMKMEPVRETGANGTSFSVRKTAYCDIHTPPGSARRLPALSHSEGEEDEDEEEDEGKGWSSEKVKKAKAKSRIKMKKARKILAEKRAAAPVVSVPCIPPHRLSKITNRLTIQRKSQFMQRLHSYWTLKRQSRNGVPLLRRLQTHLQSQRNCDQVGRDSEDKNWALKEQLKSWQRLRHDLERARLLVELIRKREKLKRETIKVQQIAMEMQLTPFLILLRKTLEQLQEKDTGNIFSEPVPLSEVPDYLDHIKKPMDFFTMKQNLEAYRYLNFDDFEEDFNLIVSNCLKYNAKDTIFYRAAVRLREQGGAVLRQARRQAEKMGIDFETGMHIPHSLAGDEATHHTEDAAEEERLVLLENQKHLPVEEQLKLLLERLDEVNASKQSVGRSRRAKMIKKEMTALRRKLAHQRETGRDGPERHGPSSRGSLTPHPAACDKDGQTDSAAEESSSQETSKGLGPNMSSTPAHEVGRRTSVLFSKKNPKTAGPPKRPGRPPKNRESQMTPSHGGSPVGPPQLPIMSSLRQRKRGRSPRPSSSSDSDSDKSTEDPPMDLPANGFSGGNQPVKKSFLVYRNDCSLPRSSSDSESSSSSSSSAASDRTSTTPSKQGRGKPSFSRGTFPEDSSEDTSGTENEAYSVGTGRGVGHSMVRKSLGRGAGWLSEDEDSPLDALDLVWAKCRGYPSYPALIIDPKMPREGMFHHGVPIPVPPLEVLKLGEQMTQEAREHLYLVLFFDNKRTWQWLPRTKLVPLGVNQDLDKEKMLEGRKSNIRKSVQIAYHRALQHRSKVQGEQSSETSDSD

[5] = target: MAP/microtubule affinity-regulating kinase 3 (Homo sapiens) (UniProt P27448); experiment: Selectivity interaction (ActivX KiNativ screen (kinase selectivity in THP-1 cell lysates)) EUB0000639a MARK3; format: subcellular; conditions: lysate, at 0.01 µM
[6] = target: Tyrosine-protein kinase Fyn (Homo sapiens) (UniProt P06241); experiment: Selectivity interaction (ActivX KiNativ screen (kinase selectivity in THP-1 cell lysates)) EUB0000639a FYN; format: subcellular; conditions: lysate, at 1 µM
[7] = target: Protein kinase C delta type (Homo sapiens) (UniProt Q05655); experiment: Selectivity interaction (KinomeScan (DiscoverX)) EUB0000045b PRKCD
[8] = target: Tyrosine-protein kinase CSK (Homo sapiens) (UniProt P41240); experiment: Selectivity interaction (ActivX KiNativ screen (ex vivo kinase selectivity in human PBMCs)) EUB0001619a CSK; format: cell-based; conditions: PBMC, at 1 µM
[9] = target: Tyrosine-protein kinase Fgr (Homo sapiens) (UniProt P09769); experiment: Selectivity interaction (ActivX KiNativ screen (ex vivo kinase selectivity in human PBMCs)) EUB0001619a FGR; format: cell-based; conditions: PBMC, at 1 µM
[10] = target: Casein kinase I isoform alpha (Homo sapiens, UniProt P48729); experiment: Selectivity interaction (KinomeScan (DiscoverX)) EUB0000655a CSNK1A1; conditions: at 10 µM
[11] = target: Hepatocyte growth factor receptor (Homo sapiens, UniProt P08581); experiment: (§1) Selectivity interaction (KinomeScan (DiscoverX)) EUB0000695a MET; conditions: at 100 nM
[12] = test system: Hepatocyte growth factor receptor (Homo sapiens), P08581 [M1250T]; experiment: as §1; conditions: at 100 nM
[13] = test system: Hepatocyte growth factor receptor (Homo sapiens), P08581 [Y1235D]; experiment: as §1; conditions: at 100 nM
[14] = target: Mitogen-activated protein kinase kinase kinase 11 (Homo sapiens) (UniProt Q16584); experiment: Selectivity interaction (KinomeScan (DiscoverX)) EUB0000695a MAP3K11; conditions: at 100 nM
[15] = target: T2, Mitogen-activated protein kinase kinase kinase kinase 2 (Homo sapiens) (UniProt Q12851); experiment: Selectivity interaction (ProQinase) EUB0000171b MAP4K2
T2 sequence (whole entry): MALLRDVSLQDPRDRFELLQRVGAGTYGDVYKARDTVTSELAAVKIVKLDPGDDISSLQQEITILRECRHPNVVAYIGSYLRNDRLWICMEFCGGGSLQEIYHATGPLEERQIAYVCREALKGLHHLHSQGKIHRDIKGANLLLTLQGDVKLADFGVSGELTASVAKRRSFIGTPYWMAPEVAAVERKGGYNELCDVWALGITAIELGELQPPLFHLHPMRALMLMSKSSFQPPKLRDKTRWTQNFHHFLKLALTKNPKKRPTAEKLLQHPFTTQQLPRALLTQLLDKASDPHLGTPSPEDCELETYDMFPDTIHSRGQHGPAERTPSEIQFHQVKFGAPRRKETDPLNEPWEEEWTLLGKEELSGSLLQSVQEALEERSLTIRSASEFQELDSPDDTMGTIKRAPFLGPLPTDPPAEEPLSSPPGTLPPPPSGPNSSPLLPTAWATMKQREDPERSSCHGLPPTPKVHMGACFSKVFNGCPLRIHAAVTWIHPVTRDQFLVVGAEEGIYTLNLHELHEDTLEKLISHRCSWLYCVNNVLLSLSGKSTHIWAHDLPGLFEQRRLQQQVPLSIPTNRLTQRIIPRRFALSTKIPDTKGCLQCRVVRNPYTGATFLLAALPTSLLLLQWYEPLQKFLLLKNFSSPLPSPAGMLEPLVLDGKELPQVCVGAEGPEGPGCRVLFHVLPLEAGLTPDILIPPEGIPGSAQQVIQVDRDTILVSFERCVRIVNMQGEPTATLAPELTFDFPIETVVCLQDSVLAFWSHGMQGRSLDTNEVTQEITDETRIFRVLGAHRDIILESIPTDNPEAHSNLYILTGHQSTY

Chain of Tyrosine-protein kinase Fgr (Homo sapiens) (P09769 2-529 limits assumed): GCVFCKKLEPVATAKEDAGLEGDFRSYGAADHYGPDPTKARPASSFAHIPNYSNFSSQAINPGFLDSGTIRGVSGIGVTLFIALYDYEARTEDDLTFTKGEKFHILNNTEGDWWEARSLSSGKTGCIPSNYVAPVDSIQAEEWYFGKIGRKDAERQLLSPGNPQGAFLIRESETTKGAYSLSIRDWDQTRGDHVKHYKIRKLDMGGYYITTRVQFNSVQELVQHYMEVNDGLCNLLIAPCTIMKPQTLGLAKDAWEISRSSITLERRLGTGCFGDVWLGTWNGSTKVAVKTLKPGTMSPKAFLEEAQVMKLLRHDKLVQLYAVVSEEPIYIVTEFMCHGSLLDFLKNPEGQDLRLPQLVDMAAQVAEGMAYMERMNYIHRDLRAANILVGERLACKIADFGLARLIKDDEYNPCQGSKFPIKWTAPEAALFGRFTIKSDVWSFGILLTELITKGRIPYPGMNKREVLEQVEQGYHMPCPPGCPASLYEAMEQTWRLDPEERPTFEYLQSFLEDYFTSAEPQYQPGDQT
Chain of Protein kinase C delta type (Homo sapiens) (Q05655 whole entry, looked up): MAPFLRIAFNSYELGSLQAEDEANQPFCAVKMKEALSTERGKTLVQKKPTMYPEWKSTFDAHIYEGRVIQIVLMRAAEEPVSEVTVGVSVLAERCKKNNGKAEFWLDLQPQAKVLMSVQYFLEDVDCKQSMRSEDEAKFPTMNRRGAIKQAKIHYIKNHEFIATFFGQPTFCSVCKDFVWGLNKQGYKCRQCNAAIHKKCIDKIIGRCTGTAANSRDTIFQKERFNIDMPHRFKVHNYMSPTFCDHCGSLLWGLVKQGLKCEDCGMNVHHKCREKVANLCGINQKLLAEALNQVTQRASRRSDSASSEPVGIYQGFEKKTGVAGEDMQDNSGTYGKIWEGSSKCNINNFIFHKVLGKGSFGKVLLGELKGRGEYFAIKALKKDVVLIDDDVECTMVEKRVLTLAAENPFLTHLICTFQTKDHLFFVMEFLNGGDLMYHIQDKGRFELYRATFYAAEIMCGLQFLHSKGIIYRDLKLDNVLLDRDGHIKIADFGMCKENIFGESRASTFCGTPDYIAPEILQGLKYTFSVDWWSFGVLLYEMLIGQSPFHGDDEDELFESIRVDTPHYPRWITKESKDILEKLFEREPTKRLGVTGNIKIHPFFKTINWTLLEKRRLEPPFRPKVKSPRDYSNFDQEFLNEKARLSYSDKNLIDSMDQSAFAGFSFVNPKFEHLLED
Chain of MAP/microtubule affinity-regulating kinase 3 (Homo sapiens) (P27448 whole entry, looked up): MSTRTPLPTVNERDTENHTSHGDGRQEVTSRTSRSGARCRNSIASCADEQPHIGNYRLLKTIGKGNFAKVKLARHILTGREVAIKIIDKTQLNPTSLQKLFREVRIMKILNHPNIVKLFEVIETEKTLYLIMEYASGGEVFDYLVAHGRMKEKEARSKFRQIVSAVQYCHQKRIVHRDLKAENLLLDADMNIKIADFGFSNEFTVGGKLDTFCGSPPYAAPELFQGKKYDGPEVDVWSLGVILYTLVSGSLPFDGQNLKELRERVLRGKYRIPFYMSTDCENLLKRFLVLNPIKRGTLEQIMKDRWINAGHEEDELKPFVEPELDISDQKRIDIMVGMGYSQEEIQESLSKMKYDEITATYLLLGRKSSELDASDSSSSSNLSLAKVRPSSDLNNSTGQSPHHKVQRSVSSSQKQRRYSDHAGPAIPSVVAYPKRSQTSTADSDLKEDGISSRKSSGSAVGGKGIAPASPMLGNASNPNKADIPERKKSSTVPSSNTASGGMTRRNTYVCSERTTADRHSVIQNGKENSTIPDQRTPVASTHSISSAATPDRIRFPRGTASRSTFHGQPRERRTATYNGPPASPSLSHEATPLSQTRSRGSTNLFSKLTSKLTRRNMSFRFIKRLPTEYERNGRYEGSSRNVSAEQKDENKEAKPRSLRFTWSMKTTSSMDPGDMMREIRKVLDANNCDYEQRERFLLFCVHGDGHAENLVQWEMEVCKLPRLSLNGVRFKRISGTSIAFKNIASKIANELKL
Chain of Mitogen-activated protein kinase kinase kinase 11 (Homo sapiens) (Q16584 whole entry, looked up): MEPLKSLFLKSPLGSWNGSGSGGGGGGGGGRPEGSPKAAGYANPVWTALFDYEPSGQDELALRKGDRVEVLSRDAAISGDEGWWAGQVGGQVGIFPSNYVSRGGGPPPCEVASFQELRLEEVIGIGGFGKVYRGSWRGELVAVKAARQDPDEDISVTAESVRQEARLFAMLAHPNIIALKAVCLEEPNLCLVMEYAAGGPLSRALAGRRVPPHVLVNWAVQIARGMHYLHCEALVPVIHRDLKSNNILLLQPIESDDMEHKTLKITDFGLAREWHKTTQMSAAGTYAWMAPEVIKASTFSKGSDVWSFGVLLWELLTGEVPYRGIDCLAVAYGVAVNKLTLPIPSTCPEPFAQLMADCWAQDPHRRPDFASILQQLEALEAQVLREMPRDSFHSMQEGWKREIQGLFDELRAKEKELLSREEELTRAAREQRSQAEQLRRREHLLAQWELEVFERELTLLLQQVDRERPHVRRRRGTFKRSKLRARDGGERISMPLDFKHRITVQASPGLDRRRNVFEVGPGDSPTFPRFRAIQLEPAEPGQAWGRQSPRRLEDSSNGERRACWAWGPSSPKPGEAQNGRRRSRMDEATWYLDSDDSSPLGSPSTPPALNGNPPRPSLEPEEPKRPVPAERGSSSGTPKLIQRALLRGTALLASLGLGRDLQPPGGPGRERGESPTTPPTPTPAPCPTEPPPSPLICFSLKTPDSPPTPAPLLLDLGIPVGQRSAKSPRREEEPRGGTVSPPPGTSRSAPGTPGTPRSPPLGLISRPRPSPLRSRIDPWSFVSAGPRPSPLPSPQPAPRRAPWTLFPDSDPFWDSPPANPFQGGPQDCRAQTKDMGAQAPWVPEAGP
Chain of Mitogen-activated protein kinase 14 (Q16539 whole entry): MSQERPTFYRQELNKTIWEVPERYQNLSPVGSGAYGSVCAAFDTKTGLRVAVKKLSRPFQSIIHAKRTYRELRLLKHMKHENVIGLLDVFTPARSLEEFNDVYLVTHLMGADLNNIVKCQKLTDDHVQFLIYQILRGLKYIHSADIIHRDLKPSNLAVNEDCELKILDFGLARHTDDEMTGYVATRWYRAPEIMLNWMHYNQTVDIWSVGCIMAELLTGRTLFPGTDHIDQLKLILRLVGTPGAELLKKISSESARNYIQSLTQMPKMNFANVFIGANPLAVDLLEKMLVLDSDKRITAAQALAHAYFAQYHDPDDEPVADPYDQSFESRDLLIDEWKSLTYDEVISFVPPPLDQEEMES
Chain of Casein kinase I isoform alpha (P48729 2-337 limits assumed): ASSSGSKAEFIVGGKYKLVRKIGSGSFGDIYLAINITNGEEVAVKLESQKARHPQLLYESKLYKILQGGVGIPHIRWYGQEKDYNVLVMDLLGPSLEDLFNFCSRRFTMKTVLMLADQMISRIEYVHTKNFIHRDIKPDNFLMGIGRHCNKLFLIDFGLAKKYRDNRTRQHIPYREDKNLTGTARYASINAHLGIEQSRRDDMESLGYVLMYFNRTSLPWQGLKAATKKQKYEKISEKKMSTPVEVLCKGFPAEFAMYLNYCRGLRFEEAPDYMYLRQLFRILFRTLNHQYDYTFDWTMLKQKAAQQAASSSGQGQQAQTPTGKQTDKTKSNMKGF
Chain of Hepatocyte growth factor receptor (P08581 whole entry): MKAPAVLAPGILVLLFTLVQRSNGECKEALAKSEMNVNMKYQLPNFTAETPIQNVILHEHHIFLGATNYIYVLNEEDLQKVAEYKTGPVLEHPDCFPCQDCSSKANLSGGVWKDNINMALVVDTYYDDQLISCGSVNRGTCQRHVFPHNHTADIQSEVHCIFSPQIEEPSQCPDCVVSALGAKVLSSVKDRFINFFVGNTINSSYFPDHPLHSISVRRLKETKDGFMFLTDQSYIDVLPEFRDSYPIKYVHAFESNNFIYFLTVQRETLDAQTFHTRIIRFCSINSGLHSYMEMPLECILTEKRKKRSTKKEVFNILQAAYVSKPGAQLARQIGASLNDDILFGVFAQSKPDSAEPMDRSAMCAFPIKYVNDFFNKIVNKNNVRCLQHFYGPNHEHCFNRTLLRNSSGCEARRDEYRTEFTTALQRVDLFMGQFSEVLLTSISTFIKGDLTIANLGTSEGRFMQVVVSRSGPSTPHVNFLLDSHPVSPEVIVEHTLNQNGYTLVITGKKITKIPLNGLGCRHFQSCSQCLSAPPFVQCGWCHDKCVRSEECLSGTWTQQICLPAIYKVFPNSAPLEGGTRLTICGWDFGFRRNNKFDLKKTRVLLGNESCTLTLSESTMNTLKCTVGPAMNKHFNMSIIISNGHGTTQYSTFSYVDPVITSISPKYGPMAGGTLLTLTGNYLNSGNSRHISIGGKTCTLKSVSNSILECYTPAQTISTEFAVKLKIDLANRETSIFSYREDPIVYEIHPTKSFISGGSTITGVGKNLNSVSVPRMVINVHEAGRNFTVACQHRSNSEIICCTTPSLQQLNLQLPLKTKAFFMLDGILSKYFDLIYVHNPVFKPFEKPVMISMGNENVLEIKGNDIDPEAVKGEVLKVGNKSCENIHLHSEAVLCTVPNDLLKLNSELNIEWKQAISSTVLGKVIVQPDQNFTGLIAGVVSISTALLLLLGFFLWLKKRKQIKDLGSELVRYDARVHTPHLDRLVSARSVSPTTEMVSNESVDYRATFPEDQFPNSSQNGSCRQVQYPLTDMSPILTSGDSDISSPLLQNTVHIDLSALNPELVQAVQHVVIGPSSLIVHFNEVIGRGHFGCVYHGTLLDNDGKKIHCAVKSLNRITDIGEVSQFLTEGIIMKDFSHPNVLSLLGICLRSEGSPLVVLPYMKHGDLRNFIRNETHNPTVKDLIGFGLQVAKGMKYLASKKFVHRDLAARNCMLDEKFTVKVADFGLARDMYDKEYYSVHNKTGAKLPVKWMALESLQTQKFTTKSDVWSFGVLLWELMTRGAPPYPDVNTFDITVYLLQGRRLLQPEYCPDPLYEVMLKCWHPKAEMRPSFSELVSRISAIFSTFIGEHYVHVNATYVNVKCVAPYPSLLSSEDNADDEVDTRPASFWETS

COc1cc(Nc2nc(C)cc(-c3cnn4nc(OC)ccc34)n2)cc(C(F)(F)F)c1
% of control [1]: 69%

CN1Cc2nccc(-c3cn(C)nc3-c3ccc(F)cc3)c2C1=O
IC50 [2]: 0.861 µM

O=C(NOC[C@H](O)CO)c1ccc(F)c(F)c1Nc1ccc(I)cc1F
% of control [3]: 95%

Cc1cc(CN)cc(C)c1-c1ncn(C)c1-c1cncn1C
dTagg [4]: 0 K

CC[C@@H]1[C@H](F)C(=O)N[C@@H]1COc1nccc2cc(C(N)=O)c(OC)cc12 [ZIMLOVISERTIB]
% of inhibition [5]: 10.4%
% of inhibition [6]: -11%

C=CC(=O)Nc1cc(-n2c(=O)ccc3cnc4ccc(-c5ccc(NS(C)(=O)=O)cc5)cc4c32)ccc1C
% of control ([7]; at 1 µM): 41%
% of control ([7]; at 10 µM): 91%

N#Cc1cccc(-c2c[nH]c3ncnc(N4CCOCC4)c23)c1
% of inhibition [8]: -45%
% of inhibition [9]: 2%

CN(C)CCOc1ccc(-c2nc(-c3ccncc3)c(-c3ccc4c(c3)CC/C4=N\O)[nH]2)cc1
% of control [10]: 38%

Cc1cc(F)c(C(=O)Nc2cccc(-c3nncn3C(C)C)n2)cc1-n1cnc(C2CC2)c1
% of control [11]: 97%
% of control [12]: 100%
% of control [13]: 100%
% of control [14]: 79%

C=CC(=O)Nc1cccc(C(=O)Nc2ccc(Nc3cc(-c4[nH]c(SC)nc4C)ccn3)cc2)c1
% of control ([15]; at 1 µM): 89%
% of control ([15]; at 5 µM): 50%
